Test results as given in US4999344A, “Phosphatidyl treatment of rapidly proliferating cells” (priority 1988, dated 1991).

Key:
[1] = tested on: MCF-7 wild-type (WT) breast cancer cells; experiment: TCA-precipitable 2-[3H]methylthymidine incorporation; assay type: cell-based; details: thymidine incorporation
Procedure: In order to further assess cell viability between wild-type (MCF-7 wild-type cell line) (WT) and multi-drug resistant MCF-7 ADR^R (MDR^R) breast cancer cells, tests involving TCA-precipitable 2-[^3 H]methylthymidine incorporation were employed. MCF-7 WT and ADR^R cells were plated (Day 1) at 1500 cells/well in 96-well cluster plates. On Day 2, phospholipid preparations were added to triplicate cultures. On Day 7, 2-[^3 H]methylthymidine was added and the cells harvested as described (Jett et al., Cancer Res. (1985) 45:4810-4815), using 5% TCA as the wash buffer. Results were expressed as the geometric mean of triplicate cultures.

[2] = tested on: multi-drug resistant MCF-7 ADR^R breast cancer cells; experiment: as above; assay type: cell-based; details: thymidine incorporation
Procedure: MCF-7 cells were continuously exposed to increasing concentrations of adriamycin resulting in multidrug-resistance (mdr) as a stable genetic trait (Batist et al., J. Biol. Chem. (1986) 261:[…]). The mdr cells are referred to as ADR^R cells. MCF-7 WT (wild-type) and ADR^R cells were plated at 1000 cells/well (9.6 cm^2) in RPMI 1640 supplemented with 10% fetal bovine serum (day 1). Plant PI (0.5-150 μM) in the form of multilamellar vesicles (Jett and Alving, in Methods in Enzymology 141B (eds. Conn. P.M. and Means A.R.) 459-466, Academic Press, Orlando, FL 1987) or adriamycin (1-2000 nM) was added to the cultures on day 2. At day 8-10, the fluid was removed and clones were fixed, stained and counted. Colonies were scored positive if >40 cells/clone Adriamycin (10-500 nM) or plant PI (20-200 μM) was added at the time of cell plating. At day 8-10, the colony forming units of granulocytes and monocytes (CFV-GM) were counted. The results were the average of triplicate experiments.
In order to further assess cell viability between wild-type (MCF-7 wild-type cell line) (WT) and multi-drug resistant MCF-7 ADR^R (MDR^R) breast cancer cells, tests involving TCA-precipitable 2-[^3 H]methylthymidine incorporation were employed. MCF-7 WT and ADR^R cells were plated (Day 1) at 1500 cells/well in 96-well cluster plates. […] Results were expressed as the geometric mean of triplicate cultures.

Human marrow CFV-GM = experiment: Colony forming units of granulocytes and monocytes; assay type: cell-based; details: Monocyte, 192 h
MRC-5 = experiment: Liposomal uptake by normal and tumor cells; assay type: cell-based; details: normal cells MRC-5
Procedure: (§1) Thymidine uptake is a method of assessing cell viability of cultured cells, and decreased thymidine uptake occurs as a result of cytotoxicity caused by contact with toxic substances. , MRC-5 normal embryonic lung fibroblasts; , W1-38SV/40 transformed embryonic human lung fibroblasts; .quadrature..quadrature., SK-N-MC human glioblastoma cells and , N4TG1 mouse neuroblastoma cells.
(§2) Cells were treated with liposomes containing synthetic preparations of PI (left frames) or PC (right frames) containing palmitic acid in the sn-1 position and either [^14 C]linoleic acid in the sn-2 position (FIGS. 5 and 5a) or [^14 C]arachidonic acid in the sn-2 position (FIGS. 6 and 6a) or [^14 C]oleic acid in the sn-2 position (FIGS. 7 and 7a). The liposomes were comprised of the indicated phospholipids (PI or PC) and cholesterol in a molar ratio of 2:1.
(§3) The data in Table 5 was obtained concomitantly with the toxicity studies in FIGS. 5-7a.

[3] = tested on: N4TG1 neuroblastoma cells; experiment: Fate of liposomal PI after incubation with N4TG1 neuroblastoma cells; assay type: in vitro ADME, mouse
From the text: Lipids were dried and resuspended exactly as described previously in the Biochem. Biophys. Res. Commun. article. In the use of ([^14 C]linoleoyl)PI, ([^14 C]oleoyl)PI, or ([^14 C]arachidonoyl)PI the phospholipids were used in a 2:1 molar combination with cholesterol. Cholesterol was included in the liposomes in order to minimize the net transfer of cholesterol into or out of the cells. ([^3 H]myo-Inositol)PI was used as a tracer (1%) with bovine liver PI as the bulk phospholipid carrier for forming liposomes. [^3 H]Linoleic acid was used as a tracer (4%) in liposomes containing linoleic acid:PI (yeast or animal): cholesterol, 2:1. […]
In order to extract lipids, methanol and chloroform were added to cell homogenates to obtain a single phase of CHCl3 :CH3 OH:H2 O (1:2:1 8, v/v) containing 0.1M HCl, according to Bligh and Dyer in Can. […] The lipid compositions of the cell extracts were determined by thin layer chromatography on silica gel precoated sheets (E. M. Reagents; E. Merck, FRG) using the following solvent systems: (a) chloroform:methanol: acetic acid:water, 25:15:4:2 (v/v) (used for phospholipid separation): (b) 1-propanol:4.3M ammonia containing 10 mM EDTA, 65:35 (v/v) (used for PIP and PIP2 separations); and (c) chloroform:acetone, 1:1 (v/v) (used for DG and fatty acid separations). […]

[4] = Sedimentation of liposomes by low speed / differential centrifugation; assay type: physicochemical; details: label used as liposome marker
From the text: In both FIGS. 4a and 4b, pellets 1, 2, and 3 were obtained by differential centrifugation.

[5] = tested on: N4TG1 neuroblastoma cells; experiment: Thymidine uptake (cell viability) by N4TG1 neuroblastoma cells incubated with liposomes; assay type: cell-based, mouse; details: FIG. 1
Procedure: Plant PI(S) is from the Sigma Chemical Company and plant PI(A) is from Avanti Polar Lipids, Inc. and ([^14 C]linoleoyl)PI is the synthetic PI.
FIGS. 3a and 3b show the effect of increasing the molar fraction of synthetic PI or animal PI in liposomes on (a) thymidine uptake (FIG. 3a) and myo-inositol uptake (FIG. 3b) by N4TG1 neuroblastoma cells, .circle. 100 μm PI, 200 μm PI, 300 μm PI. Cells were incubated with liposomes made up of the various combinations indicated (mol %) of ([^14 C]linoleoyl)PI and animal PI.
FIGS. 9a, b, c, and d show the effect of inhibitors on PI toxicity to tumor cells.
Lipids were dried and resuspended exactly as described previously in the Biochem. Biophys. Res. Commun. article. In the use of ([^14 C]linoleoyl)PI, ([^14 C]oleoyl)PI, or ([^14 C]arachidonoyl)PI the phospholipids were used in a 2:1 molar combination with cholesterol. Cholesterol was included in the liposomes in order to minimize the net transfer of cholesterol into or out of the cells. ([^3 H]myo-Inositol)PI was used as a tracer (1%) with bovine liver PI as the bulk phospholipid carrier for forming liposomes. [^3 H]Linoleic acid was used as a tracer (4%) in liposomes containing linoleic acid:PI (yeast or animal): cholesterol, 2:1. It was shown that it is not necessary to have cholesterol present to observe the cytotoxicity.
The N4TG1 mouse neuroblastoma cell line was obtained from Dr. Peter Chiang (Walter Reed Army Institute of Research) and cultured using Dulbecco's minimal essential medium (MEM: Grand Island Biological Co.) containing 10% fetal bovine serum. Cells were routinely started from frozen cultures every 6 weeks in order to assure that the cells used were from low passage cultures.
(§4) [methyl-^3 H]Thymidine (New England Nuclear) incorporation was carried out using 96-well plates (Costar). Thymidine incorporation was used as an assay for cell viability, since in the previous studies described in the Biochem. Biophys. Res. Commun. (1983) article, other methods of assessing cell viability, including microscopic evaluation in the presence of trypan blue, gave identical results. Fifty μl of cell suspension (4×10^5 cells/ml) were added to duplicate wells. Approximately 18 hours later 25 μl of the PI-containing liposomes were added to give a final concentration of phospholipid of 200 μM (approximately, 14 nmol/2-3×10^4 cells). At various intervals after PI addition [^3 H]thymidine, 1 μCi/well was added and incubated with the cells for 3 hours. Cells were collected on glass fiber filter mats by a mechanical cell harvester (Skatron, Inc.) using a combination of scraping and fluid turbulence (saline). Filters were dried and the material was solubilized by incubation overnight with NCS tissue solubilizer and counted in the presence of Spectrafluor (Amersham).
In FIGS. 1 and 2 the curves were quite reproducible and representative experiments are shown. Because of fluctuations (<5%) in control values, the data were "normalized" by comparison with daily controls and expressed as "percentage of control in absence of PI." Typical values for uptake of [^3 H]thymidine by controls are shown in the inserts in FIGS. 1 and 2.

WI-38/SV-40 [6] = experiment: LD50 to tumor cells of various preparations of PI; assay type: cell-based; details: Homo sapiens
From the text: as §1, with “FIGS. 5 through 7 a show comparisons of the effects of liposomes having varous phospholipids containing defined fatty acids on [^3 H-methyl]-thymidine uptake. Thymidine” for “Thymidine”
as §4
(§5) Res Commun. article cited above. The LD50 values for some of the cell lines reported in the Biochem. Biophys. Res. Commun. article are compared with LD50 values obtained using Avanti plant PI or synthetic ([14 C]linoleoyl)PI.

SK-N-MC [7] = experiment: LD50 to tumor cells of various preparations of PI; assay type: cell-based; details: Homo sapiens
From the text: as §1, with “FIGS. 5 through 7 a show comparisons of the effects of liposomes having varous phospholipids containing defined fatty acids on [^3 H-methyl]-thymidine uptake. Thymidine” for “Thymidine”
as §4, §5

N4TG1 Neuroblastoma = experiment: LD50 to tumor cells of various preparations of PI; assay type: cell-based; details: Mus musculus
From the text: as §1, with “FIGS. 5 through 7 a show comparisons of the effects of liposomes having varous phospholipids containing defined fatty acids on [^3 H-methyl]-thymidine uptake. Thymidine” for “Thymidine”
as §4, §5

HT-144 [8] = experiment: LD50 to tumor cells of various preparations of PI; assay type: cell-based; details: Homo sapiens
Procedure: as §4, §5

N4TG1 = experiment: Liposomal uptake by normal and tumor cells; assay type: cell-based, mouse; details: tumor cells N4TG1
Procedure: as §1, §2, §3

WI-38/SV-40 [9] = experiment: Liposomal uptake by normal and tumor cells; assay type: cell-based, human
Procedure: as §1, §2, §3

SK-N-MC [10] = experiment: Liposomal uptake by normal and tumor cells; assay type: cell-based, human; details: tumor cells SK-N-MC
Procedure: as §1, §2, §3

HT-144 [11] = experiment: Liposomal uptake by normal and tumor cells; assay type: cell-based, human; details: tumor cells HT-144
Procedure: as §2, §3

[12] = tested on: tumor cells from cultured cell lines; details: earlier articles; cited from earlier work

## CCCCC/C=C\C/C=C\CCCCCCCC(=O)O[C@H](COC(=O)CCCCCCCCCCCCCCC)COP(=O)([O-])OCC[N+](C)(C)C
[1]
  toxicity: not as toxic as synthetic phosphatidylinositol containing the identical fatty acids
[2]
  toxicity: not as toxic as synthetic phosphatidylinositol containing the identical fatty acids

## COc1cccc2c1C(=O)c1c(O)c3c(c(O)c1C2=O)C[C@@](O)(C(=O)CO)C[C@@H]3O[C@H]1C[C@H](N)[C@H](O)[C@H](C)O1 [adriamycin]
Human marrow CFV-GM
  IC50: 0.08 µM

## CCCCC/C=C\C/C=C\CCCCCCC[14C](=O)O[C@H](COC(=O)CCCCCCCCCCCCCCC)COP(=O)(O)O[C@@H]1[C@H](O)[C@H](O)[C@@H](O)[C@H](O)[C@H]1O [([^14 C]linoleoyl)PI, sn-3-phosphatidyl(1-palmitoyl-2-[1'-^14 C]linoleoyl)myo-inositol]
MRC-5
  Liposomal uptake: 0.09 nMoles of phospholipid/1 × 10^5 cells
[3]
  DG (diglycerides): 0.8
[4]
  liposomes sedimented by low speed centrifugation: 8%
  liposomes which did not sediment: 92%
[5]
  effectiveness vs plant PI from Sigma: slightly more effective
WI-38/SV-40 [6]; 3 hours
  IC50: 65 µM
WI-38/SV-40 [6]; 8 hours
  IC50: 35 µM
SK-N-MC [7]; 3 hours
  IC50: 39 µM
SK-N-MC [7]; 8 hours
  IC50: 38 µM
N4TG1 Neuroblastoma; 3 hours
  IC50: 25 µM
N4TG1 Neuroblastoma; 8 hours
  IC50: 25 µM
HT-144 [8]; 3 hours
  IC50: 25 µM
HT-144 [8]; 8 hours
  IC50: 25 µM
N4TG1
  Liposomal uptake: 0.39 nMoles of phospholipid/1 × 10^5 cells
WI-38/SV-40 [9]
  Liposomal uptake: 0.39 nMoles of phospholipid/1 × 10^5 cells
SK-N-MC [10]
  Liposomal uptake: 0.45 nMoles of phospholipid/1 × 10^5 cells
HT-144 [11]
  Liposomal uptake: 0.39 nMoles of phospholipid/1 × 10^5 cells

## CCCCCCCCCCCCCCCCCC(=O)OCC(COP(=O)([O-])OCC[N+](C)(C)C)OC(=O)CCCCCCCCCCCCCCCCC (centres unmarked) [distearoyl phosphatidyl choline, reference compound]
[1]
  toxicity: no toxicity
[2]
  toxicity: no toxicity

## CCCCCCCC/C=C\CCCCCCCC(=O)O[C@H]1CC[C@@]2(C)C(=CC[C@H]3[C@@H]4CC[C@H]([C@H](C)CCCC(C)C)[C@@]4(C)CC[C@@H]32)C1 [cholesteryl oleate]
[12]
  anti-tumor effect / selective killing of tumor cells: reduced the anti-tumor effect
